system: senescent HEPG2 cells; experiment: Senescence assay: viability of senescent HEPG2 cells; format: cell-based; details: Homo sapiens, 24-72 hours incubation, viability by CellTiter-Glo or XTT, read-out: Absolute IC50 average HEPG2_SEN IC50
Description: Cells were maintained in DMEM media (high glucose, 4 mM L-glutamine, no sodium pyruvate) supplemented with 10% fetal bovine serum in a humidified incubator at 37° C. with 5% carbon dioxide. Senescence was induced via treatment with a sublethal concentration of chemotherapy (bleomycin, gemcitabine, doxorubicin, 5-fluorouridine), followed by a rest period without chemotherapy similarly to what is reported by others in the field (e.g., Aoshiba et al., 2003 Eur Respir J 22:436-443). Senescence was qualified by low EdU (5-ethynyl-2′-deoxyuridine) incorporation and high SA-β-Gal (senescence-associated beta-galactosidase) staining compared to proliferating untreated cells. Senescent cells were plated into 96-well plates at a density of 5-15,000 cells/well. The next day, compounds were added in duplicate across ten different concentrations spanning roughly four Log10 units. Cells were incubated with the compounds for 24-72 hours, at which point viability was quantified using CellTiter-Glo (Promega) or XTT (R&D Systems). The viability for treated cells was determined relative to untreated control cells. The log of the compound concentration vs. normalized mean viability was fit to a four parameters Hill function with variable slope. The bottom was constrained to be greater than zero. The X mean value for Y=50 was interpolated to determine the absolute IC50. The results in Table 2 indicate that many of the compounds are active in cells and can induce a dose dependent decrease in the viability of senescent HEPG2 and A549 cells.

Structure (SMILES) | IC50
C#CC(F)(F)[C@]1(O)CC[C@H]2[C@@H]3CCC4=C/C(=N/O[C@H]5C[C@H](O)[C@H](O)[C@H](C)O5)CCC4=C3[C@H](c3ccc(C4CC4)cc3)C[C@@]21C [Compound 5, (8S,11S,13S,14S,17S,E)-11-(4-cyclopropylphenyl)-17-(1,1-difluoroprop-2-yn-1-yl)-17-hydroxy-13-methyl-1,2,6,7,8,11,12,13,14,15,16,17-dodecahydro-3H-cyclopenta[a]phenanthren-3-one O-((2S,4S,5S,6S)-4,5-dihydroxy-6-methyltetrahydro-2H-pyran-2-yl) oxime] | 10 to 100 nM
C#CC(F)(F)[C@]1(O)CC[C@H]2[C@@H]3CCC4=C/C(=N\O[C@H]5C[C@H](O)[C@H](O)[C@H](C)O5)CCC4=C3[C@H](c3ccc(C4CC4)cc3)C[C@@]21C [Compound 6, (8S,11S,13S,14S,17S,Z)-11-(4-cyclopropylphenyl)-17-(1,1-difluoroprop-2-yn-1-yl)-17-hydroxy-13-methyl-1,2,6,7,8,11,12,13,14,15,16,17-dodecahydro-3H-cyclopenta[a]phenanthren-3-one O-((2S,4S,5S,6S)-4,5-dihydroxy-6-methyltetrahydro-2H-pyran-2-yl) oxime] | 0.1 to 10 nM
C#CC(F)(F)[C@]1(O)CC[C@H]2[C@@H]3CCC4=C/C(=N\OCCOCCOCCOC)CCC4=C3[C@@H](c3ccc(C4CC4)cc3)C[C@@]21C [Compound 14, (8S,11R,13S,14S,17S,Z)-11-(4-cyclopropylphenyl)-17-(1,1-difluoroprop-2-yn-1-yl)-17-hydroxy-13-methyl-1,2,6,7,8,11,12,13,14,15,16,17-dodecahydro-3H-cyclopenta[a]phenanthren-3-one O-(2-(2-(2-methoxyethoxy)ethoxy)ethyl)oxime] | 0.1 to 10 nM

Second part, the compound after the results:

IC50 | Structure (SMILES)
10 to 100 nM | C#CC(F)(F)[C@]1(O)CC[C@H]2[C@@H]3CCC4=C/C(=N\OCCOC)CCC4=C3[C@@H](c3ccc(C4CC4)cc3)C[C@@]21C [Compound 2, (8S,11R,13S,14S,17S,Z)-11-(4-cyclopropylphenyl)-17-(1,1-difluoroprop-2-yn-1-yl)-17-hydroxy-13-methyl-1,2,6,7,8,11,12,13,14,15,16,17-dodecahydro-3H-cyclopenta[a]phenanthren-3-one O-(2-methoxyethyl)oxime]
10 to 100 nM | C#CC(F)(F)[C@]1(O)CC[C@H]2[C@@H]3CCC4=C/C(=N/OCCOC)CCC4=C3[C@@H](c3ccc(C4CC4)cc3)C[C@@]21C [Compound 3, (8S,11R,13S,14S,17S,E)-11-(4-cyclopropylphenyl)-17-(1,1-difluoroprop-2-yn-1-yl)-17-hydroxy-13-methyl-1,2,6,7,8,11,12,13,14,15,16,17-dodecahydro-3H-cyclopenta[a]phenanthren-3-one O-(2-methoxyethyl)oxime]
0.1 to 10 nM | C#CC(F)(F)[C@]1(O)CC[C@H]2[C@@H]3CCC4=C/C(=N\OCCOCCO)CCC4=C3[C@@H](c3ccc(C4CC4)cc3)C[C@@]21C [Compound 11, (8S,11R,13S,14S,17S,Z)-11-(4-cyclopropylphenyl)-17-(1,1-difluoroprop-2-yn-1-yl)-17-hydroxy-13-methyl-1,2,6,7,8,11,12,13,14,15,16,17-dodecahydro-3H-cyclopenta[a]phenanthren-3-one O-(2-(2-hydroxyethoxy)ethyl)oxime]
0.1 to 10 nM | C#CC(F)(F)[C@]1(O)CC[C@H]2[C@@H]3CCC4=C/C(=N/OCCOCCO)CCC4=C3[C@@H](c3ccc(C4CC4)cc3)C[C@@]21C [Compound 12, (8S,11R,13S,14S,17S,E)-11-(4-cyclopropylphenyl)-17-(1,1-difluoroprop-2-yn-1-yl)-17-hydroxy-13-methyl-1,2,6,7,8,11,12,13,14,15,16,17-dodecahydro-3H-cyclopenta[a]phenanthren-3-one O-(2-(2-hydroxyethoxy)ethyl)oxime]

From patent US12485132B2, “GPX4 inhibitors and senolytic compounds and uses thereof” (Rubedo Life Sciences, Inc., priority 2023, dated 2025)
